Where two headings read alike, the source gives them in different places.
Tests used:
[1] = target: Full length SHP2 protein (Recombinant Human SHP-2) (Homo sapiens, UniProt Q06124); assay: SHP2 biochemical assay (DiFMUP substrate, activating peptide IRSI_2pY); conditions: DiFMUP substrate, activating peptide IRSI_2pY, 60 min at RT; read-out: SHP-2 Biochemical assay IC50
Description: The inhibition of SHP2 by compounds of the invention was monitored using the surrogate substrate DiFMUP after protein activation by a peptide bearing two appropriately spaced phosphotyrosine. […] The generation of the DiFMU product by activated SHP2 was monitored through Fluorescence measurement with a PerkinElmer Envision reader.
The inhibitor dose response curves were analyzed with Genedata Screener.

[2] = tested on: pERK level in KYSE520 cells; assay: p-Erk cellular assay in KYSE520 (Mesoscale); assay type: cell-based; conditions: 2 h incubation, read-out: pERK1/2 in KYSE520 IC50
Description: (§1) p-Erk Cellular Assay in MDA-MB-468 and KYSE520:
(§2) The effect of SHP2 inhibitors on pERK level was assessed using phospho-specific antibody using Mesoscale quantification platform. For measuring change in pERK levels using mesoscale, 30,000 cells of MDA MB468 and KYSE520 cells were plated in 96-well tissue culture treated plate in 175 ul volume of media. After an overnight incubation at 37° C., various SHP2 inhibitors were added in different concentration to each well maintaining duplicate wells across plates and incubated with compounds for 2 h at 37° C. followed by a wash with ice cold PBS buffer. The cells were then lysed in lysis buffer and processed and analyzed for p-ERK/ERK as per manufacturer's instructions (Mesoscale discovery, cat No. K15107D-3).

[3] = tested on: pERK level in MDA-MB-468 cells; assay: p-Erk cellular assay in MDA-MB-468 (Mesoscale); assay type: cell-based; conditions: 2 h incubation, read-out: pERK1/2 in MDA-MB-468 IC50
Description: as §1, §2

IC50 [1] | Compound | other results
> 10 µM | CC1(N)CCN(c2nc(N)c(-c3cccc(Cl)c3Cl)c(C(N)=O)n2)CC1 (atropisomer, axis not shown; (M)) [Compound 26, (4M)-6-Amino-2-(4-amino-4-methyl-piperidin-1-yl)-5-(2,3-dichloro-phenyl)-pyrimidine-4-carboxylic acid amide] | IC50 [3]: 8.19 µM; IC50 [2]: > 10 µM
0.11 µM | Cc1nc(N2CCC(C)(N)CC2)nc(C(N)=O)c1-c1cccc(Cl)c1Cl (atropisomer, axis not shown; (M)) [Compound 30, (4M)-2-(4-amino-4-methylpiperidin-1-yl)-5-(2,3-dichlorophenyl)-6-methylpyrimidine-4-carboxamide] | IC50 [3]: 0.475 µM
0.41 µM | Cc1nc(N[C@@H]2CCC[C@H](N)C2)nc(C(N)=O)c1-c1cccc(Cl)c1Cl (atropisomer, axis not shown; (M)) [Compound 88, (4M)-2-{[(1R,3S)-3-aminocyclohexyl]amino}-5-(2,3-dichlorophenyl)-6-methylpyrimidine-4-carboxamide] | IC50 ([2]; Homo sapiens, KYSE-520, 2 h): 4.25 µM
– | C[C@@H]1OCC2(CCN(c3nc(N)c(-c4cccc(Cl)c4Cl)c(C(N)=O)n3)CC2)[C@@H]1N (single isomer, unassigned) [Compound 66] | IC50 ([3]; Homo sapiens, MDA-MB-468, 2 h): 0.503 µM; IC50 ([2]; Homo sapiens, KYSE-520, 2 h): 0.863 µM
– | Cc1nc(N2CCC3(CC2)CC(F)(F)C[C@H]3N)nc(C(N)=O)c1-c1cccc(Cl)c1Cl (single isomer, unassigned) [Compound 96] | IC50 ([2]; Homo sapiens, KYSE-520, 2 h): 0.993 µM
0.5 µM | NC[C@@]12CCCC[C@@H]1CN(c1nc(N)c(-c3cccc(Cl)c3Cl)c(C(N)=O)n1)C2 (single isomer, unassigned) [Compound 100] | IC50 ([2]; Homo sapiens, KYSE-520, 2 h): 12.8 µM
0.12 µM | NC[C@]12CCC[C@H]1CN(c1nc(N)c(-c3cccc(Cl)c3Cl)c(C(N)=O)n1)C2 (single isomer, unassigned) [Compound 104] | IC50 ([2]; Homo sapiens, KYSE-520, 2 h): 2.25 µM
– | CC1(N)CCN(c2ncc(-c3cccc(Cl)c3Cl)c(C(N)=O)n2)CC1 [Compound 1, 2-(4-amino-4-methylpiperidin-1-yl)-5-(2,3-dichlorophenyl)pyrimidine-4-carboxamide] | IC50 ([3]; Homo sapiens, MDA-MB-468, 2 h): 12 µM
2.1 µM | CC1(N)CCN(c2nc(N)c(-c3cccc(Cl)c3)c(C(N)=O)n2)CC1 [Compound 2, 6-Amino-2-(4-amino-4-methyl-piperidin-1-yl)-5-(3-chlorophenyl)-pyrimidine-4-carboxylic Acid Amide] | IC50 ([3]; Homo sapiens, MDA-MB-468, 2 h): 3.08 µM
– | CC1(N)CCN(c2nc(Cl)c(-c3cccc(Cl)c3Cl)c(C(N)=O)n2)CC1 [Compound 16, 2-(4-Amino-4-methyl-piperidin-1-yl)-6-chloro-5-(2,3-dichlorophenyl)-pyrimidine-4-carboxylic Acid Amide] | IC50 [3]: 0.516 µM; IC50 ([2]; Homo sapiens, KYSE-520, 2 h): 1.14 µM
5.6 µM | NC(=O)c1nc(N2CC(N)C2)nc(N)c1-c1cccc(Cl)c1Cl [Compound 69, 6-amino-2-(3-aminoazetidin-1-yl)-5-(2,3-dichlorophenyl)-pyrimidine-4-carboxamide] | –
5.3 µM | NC[C@@H]1[C@H]2CN(c3nc(N)c(-c4cccc(Cl)c4Cl)c(C(N)=O)n3)C[C@@H]12 [Compound 70, 6-amino-2-[(1R,5S,6R)-6-(aminomethyI)-3-azabicyclo-[3.1.0]hexan-3-yl]-5-(2,3-dichlorophenyl)pyrimidine-4-carboxamide] | –
1.3 µM | NCC1CCN1c1nc(N)c(-c2cccc(Cl)c2Cl)c(C(N)=O)n1 (stereo not drawn) [Compound 71, 6-amino-2-[2-(aminomethyl)-azetidin-1-yl]-5-(2,3-dichlorophenyl)pyrimidine-4-carboxamide] | –
6.7 µM | Cc1nc(N2C[C@H]3CC[C@@H](N)[C@H]3C2)nc(C(N)=O)c1-c1cccc(Cl)c1Cl [Compound 72, 2-((3aR,4R,6aS)-4-Amino-hexahydro-cyclopenta-[c]pyrrol-2-yl)-5-(2,3-dichloro-phenyl)-6-methyl-pyrimidine-4-carboxylic acid amide] | –
5.2 µM | Cc1nc(N2C[C@H]3CCC(N)[C@@H]3C2)nc(C(N)=O)c1-c1cccc(Cl)c1Cl (stereo partly drawn) [Compound 73, 2-((3aS,6aS)-4-Amino-hexahydro-cyclopenta-[c]pyrrol-2-yl)-5-(2,3-dichloro-phenyl)-6-methyl-pyrimidine-4-carboxylic acid amide] | –
> 10 µM | Cc1nc(N2C[C@@H]3CC[C@H](N)[C@@H]3C2)nc(C(N)=O)c1-c1cccc(Cl)c1Cl [Compound 74, 2-((3aS,4S,6aR)-4-Amino-hexahydro-cyclopenta-[c]pyrrol-2-yl)-5-(2,3-dichloro-phenyl)-6-methyl-pyrimidine-4-carboxylic acid amide] | –
2.1 µM | Cc1nc(N2C[C@@H]3CC[C@@H](N)[C@@H]3C2)nc(C(N)=O)c1-c1cccc(Cl)c1Cl [Compound 75, 2-((3aS,4R,6aR)-4-Amino-hexahydro-cyclopenta[c]pyrrol-2-yl)-5-(2,3-dichloro-phenyl)-6-methyl-pyrimidine-4-carboxylic acid amide] | –
1 µM | Cc1nc(N2C[C@@H]3CCC(N)[C@H]3C2)nc(C(N)=O)c1-c1cccc(Cl)c1Cl (stereo partly drawn) [Compound 76, 2-((3aR,6aR)-4-Amino-hexahydro-cyclopenta-[c]pyrrol-2-yl)-5-(2,3-dichloro-phenyl)-6-methyl-pyrimidine-4-carboxylic acid amide] | –
> 10 µM | Cc1nc(N2C[C@H]3CC[C@H](N)[C@H]3C2)nc(C(N)=O)c1-c1cccc(Cl)c1Cl [Compound 77, 2-((3aR,4S,6aS)-4-Amino-hexahydro-cyclopenta-[c]pyrrol-2-yl)-5-(2,3-dichloro-phenyl)-6-methyl-pyrimidine-4-carboxylic acid amide] | –
5.3 µM | Cc1nc(N2C[C@@H](N)[C@@H](O)C2)nc(C(N)=O)c1-c1cccc(Cl)c1Cl [Compound 80, 2-((3R,4S)-3-Amino-4-hydroxy-pyrrolidin-1-yl)-5-(2,3-dichloro-phenyl)-6-methyl-pyrimidine-4-carboxylic acid amide] | –
2 µM | Cc1nc(N2CCC(C)(N)CC2)nc(C(N)=O)c1-c1ccc(F)cc1Cl [Compound 82, 2-(4-Amino-4-methyl-piperidin-1-yl)-5-(2-chloro-4-fluoro-phenyl)-6-methyl-pyrimidine-4-carboxylic acid amide] | –
14 µM | Cc1nc(N2CCC(C)(N)CC2)nc(C(N)=O)c1-c1cnccc1Cl [Compound 83, 2-(4-Amino-4-methyl-piperidin-1-yl)-5-(4-chloro-pyridin-3-yl)-6-methyl-pyrimidine-4-carboxylic acid amide] | –
6.3 µM | Cc1nc(N2C[C@H](N)[C@@H](O)C2)nc(C(N)=O)c1-c1cccc(Cl)c1Cl [Compound 84, 2-((3S,4S)-3-Amino-4-hydroxy-pyrrolidin-1-yl)-5-(2,3-dichloro-phenyl)-6-methyl-pyrimidine-4-carboxylic acid amide] | –
> 10 µM | Cc1nc(N2CCC(C)(N)CC2)nc(C(N)=O)c1-c1ccncc1 [Compound 86, 2-(4-Amino-4-methyl-piperidin-1-yl)-6-methyl-5-pyridin-4-yl-pyrimidine-4-carboxylic acid amide] | –
0.1 µM | CC1(N)CCCN(c2nc(N)c(-c3cccc(Cl)c3Cl)c(C(N)=O)n2)CC1 (stereo not drawn) [Compound 91, 6-Amino-2-(4-amino-4-methyl-azepan-1-yl)-5-(2,3-dichloro-phenyl)-pyrimidine-4-carboxylic acid amide] | IC50 ([2]; Homo sapiens, KYSE-520, 2 h): 2.6 µM
2.3 µM | Cc1nc(N[C@H]2CC[C@@H](N)CC2)nc(C(N)=O)c1-c1cccc(Cl)c1Cl [Compound 93, 2-(4-Amino-cyclohexyl-amino)-5-(2,3-dichloro-phenyl)-6-methyl-pyrimidine-4-carboxylic acid amide] | –
0.53 µM | Cc1nc(N2CCC(C)(N)CC2)nc(C(N)=O)c1-c1cccc(C(F)(F)F)c1Cl [Compound 111, 2-(4-Amino-4-methyl-piperidin-1-yl)-5-(2-chloro-3-trifluoromethyl-phenyl)-6-methyl-pyrimidine-4-carboxylic acid amide] | IC50 ([2]; Homo sapiens, KYSE-520, 2 h): 4.7 µM
0.53 µM | Cc1nc(N2CCC3(CC2)Oc2ncccc2[C@@H]3N)nc(C(N)=O)c1-c1cccc(Cl)c1Cl [Compound 125, (4M)-2-[(3S)-3-amino-3H-spiro[furo[2,3-b]pyridine-2,4′-piperidin]-1′-yl]-5-(2,3-dichlorophenyl)-6-methylpyrimidine-4-carboxamide] | –
> 10 µM | Cc1nc(N2CCC3(CC2)Oc2ncccc2[C@@H]3N)nc(C(N)=O)c1-c1cccc(Cl)c1Cl [Compound 127, (4P)-2-[(3S)-3-amino-3H-spiro[furo[2,3-b]pyridine-2,4′-piperidin]-1′-yl]-5-(2,3-dichlorophenyl)-6-methylpyrimidine-4-carboxamide] | –

Compound | IC50 [1] | other results
2-((S)-3-amino-3H-spiro[benzofuran-2,4′-piperidin]-1′-yl)-5-(2,3-dichlorophenyl)-6-methylpyrimidine-4-carboxamide [Compound 122] | 0.017 µM | IC50 [2]: 0.048 µM

From US11033547B2, “Carboxamide-pyrimidine derivatives as SHP2 antagonists” (Merck Patent GmbH, priority 2019, dated 2021)
